Drawing on PubChem BioAssay (NCI), this text covers TGI for 14 compounds.

Assay in all cases: DTP human tumour cell line panel, 48 h
Experiment [1] relates to HCT-116 colon.
Experiment [2] has as its system HCT-15 colon.
The test system of experiment [3] is HT29 colon.
Experiment [4] concerns MALME-3M melanoma.
The test system of experiment [5] is MDA-MB-435.
Experiment [6] deals with OVCAR-4 ovarian.
Experiment [7] deals with RXF 393 renal.
In experiment [8] the test system is SK-MEL-28 melanoma.
Experiment [9] concerns SNB-75 CNS.
Experiment [10] has as its system DLD-1 colon.
For experiment [11], the system named is DMS 114 small cell lung.
Experiment [12] concerns DMS 273 small cell lung.
The subject of experiment [13] is HOP-18 NSCLC.
Experiment [14] concerns KM20L2 colon.
Experiment [15] relates to LXFL 529 NSCLC.
In experiment [16] the test system is M19-MEL melanoma.
Experiment [17] has as its system SNB-78 CNS.

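How tested: cells in 96-well plates exposed to compound for 48 hours at five concentrations. TGI marks complete inhibition of growth.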

One may read the TGI as the concentration at which net growth stops. The low end stands for greater sensitivity of the cells, the high end for lower sensitivity of the cells. For `C=CCN(c1cc(OCc2ccccc2)c2[nH]cc(C)c2c1)S(C)(=O)=O`, the TGI is above 100 µM in experiment [1]; above 100 µM in [2]; above 100 µM in experiment [3]; 88.7 µM in experiment [4]; above 100 µM in [5]; above 100 µM in [6]. Also, the TGI is 71.4 µM in experiment [7], above 100 µM in experiment [8] and 55.6 µM in experiment [9].

Consider `CC(Nc1ncc2c(n1)-c1ccccc1OC2)C(=O)O` (centres undefined), for which the concentration for total growth inhibition (TGI) in experiment [1], in [2], in [3], in [4], in experiment [5] and in [6] was above 100 µM each time. In addition, the concentration for total growth inhibition (TGI) in [7], in experiment [8] and in [9] was above 100 µM throughout.

As to `CC(=O)Nc1c(S(=O)(=O)c2ccccc2)c(C)c(C)n1CCN(C)C`, the TGI in [1], in [2], in experiment [3], in [4], in [5] and in experiment [6] was above 100 µM each time. Further, the TGI in experiment [7], in [8] and in experiment [9] was above 100 µM throughout.

With `O=P12N(CCN1c1ccccc1)CCN2c1ccccc1`, the total growth inhibition concentration (TGI) in experiment [1], in [2], in experiment [3], in experiment [4], in experiment [5] and in experiment [6] was above 100 µM throughout. Besides, the TGI in experiment [7], in experiment [8] and in experiment [9] was above 100 µM in each case.

`O=C1NC(=O)C(F)(n2cc(F)c(=O)[nH]c2=O)C(O)N1` (centres undefined): the total growth inhibition concentration (TGI) in experiment [1], in experiment [2], in [3], in experiment [4], in experiment [5] and in experiment [6] was above 10 µM throughout. The TGI in experiment [7], in experiment [8] and in experiment [9] was above 10 µM throughout.

`O=C(O)CN1C=C(C(=O)c2cc3ccccc3n2S(=O)(=O)c2ccccc2)CCC1`: the TGI in [1], in experiment [2], in [3], in [4], in experiment [5] and in [6] was above 100 µM throughout. Besides, the TGI in [7], in [8] and in experiment [9] was above 100 µM in each case.

With `c1ccc2c(Cc3[nH]c4ccccc4c3Cc3c[nH]c4ccccc34)c[nH]c2c1`, the TGI in experiment [1] came to 3.47 µM; in experiment [2], 10.5 µM; in [3] it was 6.07 µM; in [4] it was 6.3 µM; in experiment [5], 5.16 µM; in experiment [6], 13.2 µM. Further, the values for the TGI in experiment [7], in [8] and in [9] were 5.8 µM, 23.9 µM and 9.69 µM, respectively.

As to `COc1ccc(N=Nc2c(C)c(C#N)c(=S)n(C3OC(CO)C(O)C(O)C3O)c2-c2ccccc2)cc1` (centres undefined), the total growth inhibition concentration (TGI) was 94 µM in experiment [1]; above 100 µM in experiment [2]; above 100 µM in [3]; 63.1 µM in experiment [4]; 73.9 µM in experiment [5]; above 100 µM in experiment [6]. In addition, the total growth inhibition concentration (TGI) in experiment [7] worked out at 65.9 µM; in experiment [8] it was 63.6 µM; in experiment [9], 49.1 µM.

As to `CC(C)C1C(=O)N(c2c(F)c(F)c(F)c(F)c2F)C(=S)N1CCS(=O)c1ccccc1` (centres undefined), the TGI in [1] turned out to be 34.7 µM; in [2], 31.8 µM; in experiment [3] it was 27.8 µM; in experiment [4], 30.2 µM; in experiment [5], 32.3 µM; in experiment [6] it was 31.1 µM. Also, the results for the concentration for total growth inhibition (TGI) in experiment [7], in experiment [8] and in [9] were 35.4 µM, 30.8 µM and above 58.7 µM, respectively.

For the compound `O=c1cc(N=Nc2ccc(Br)cc2)[nH]c(=S)[nH]1`, the TGI in [1] turned out to be 35.6 µM; in experiment [2], 29.8 µM; in [3], 34.2 µM; in [4] it was 30.8 µM; in experiment [5], 38.1 µM; in experiment [6], 34.3 µM. The concentration for total growth inhibition (TGI) in [7] is 45.4 µM; in experiment [8] it was 53.2 µM; in [9], above 100 µM.

`COC(=O)CC(NC(=O)OCc1ccccc1)C(C(C)=O)C(=O)OCc1ccccc1` (centres undefined): the TGI in [10], in experiment [11], in experiment [12], in experiment [1], in experiment [2] and in [13] was above 31.6 µM throughout. Further, the TGI is above 31.6 µM in experiment [14]; above 31.6 µM in [15]; above 31.6 µM in experiment [16]; above 31.6 µM in experiment [8]; 30.8 µM in [9]; above 31.6 µM in experiment [17].

Turning to `CCCCNC(=O)c1cc2c(cc1Cl)Sc1nccn1S2(=O)=O`, the TGI in experiment [1], in [2], in [3], in [4], in experiment [5] and in [6] was above 100 µM each time. For the same compound, the total growth inhibition concentration (TGI) in [7], in experiment [8] and in experiment [9] was above 100 µM each time.

Consider `O=C1CSC(/C=C/c2ccccc2)N1c1nc2cc3sc(N4C(=O)CSC4/C=C/c4ccccc4)nc3cc2s1` (centres undefined), for which the TGI in [1] was above 100 µM; in experiment [2] it was above 100 µM; in experiment [3] it was above 67 µM; in experiment [4] it was above 100 µM; in experiment [5] it was above 100 µM; in experiment [6] it was above 100 µM. For the same compound, the total growth inhibition concentration (TGI) in experiment [7], in [8] and in experiment [9] was above 100 µM in each case.

For `Cc1ccc(NC(Nc2ccc(C)cc2C)=C(C(Cl)=C(Cl)Cl)[N+](=O)[O-])c(C)c1`, the TGI in [1] was 26.7 µM; in [2] it was 32.3 µM; in [3], 33.3 µM; in experiment [4], 31.8 µM; in [5], 17.2 µM; in [6] it was 33.2 µM. Also, the results for the TGI in [7], in [8] and in [9] were 32.6 µM, 35.2 µM and 22.1 µM, respectively.
